Values quoted from earlier work, collected in patent publication US20220215898A1, “METHODS AND […] FOR GENERATING A VIRTUAL MODEL OF XENOBIOTIC EXPOSURE USING TRANS[…] OF LIQUID BIOPSY SAMPLES” (Certara USA, Inc., priority 2019, published 2022).

Settings: compound files selected from the Simcyp library

Row | Structure (SMILES) | clearance category of CYP3A substrate
1 | Cc1nnc2n1-c1ccc(Cl)cc1C(c1ccccc1)=NC2 [alprazolam] | low clearance
2 | Cc1ncc2n1-c1ccc(Cl)cc1C(c1ccccc1F)=NC2 [midazolam] | medium clearance
